# In patent US20250171436A1, “Tricyclic Fused Heterocyclic PDE3/4 Dual Inhibitor and Use Thereof” (XIZANG HAISCO PHARMACEUTICAL CO., LTD., priority 2022, published 2025):
# pIC50: −log10 of the molar value.
# Key:
# [1] = target: T1, PDE4B2 recombinant enzyme (Homo sapiens, UniProt Q07343); assay: In vitro assay of inhibitory activity against PDE 4B2 enzyme (FP, FAM-cAMP); type: biochemical; settings: in vitro screening assay
# T1 construct: purchased BPS 60343
# Procedure: (§1) • 1. In vitro assay of the inhibitory activity of compounds against PDE 3A and PDE 4B2 enzymes
# (§2) • Envision 2104 Multilabel Reader (PerkinElmer) • Black 96-well Plate (Cat #6005540, PerkinElmer) • PDE3A Assay Kit (BPS, Cat. 79736), PDE4B2 Assay Kit (BPS, Cat. 60343) • PDE3A recombinant enzyme • PDE4B2 recombinant enzyme • FAM-Cyclic-3′, 5′-AMP • PDE assay buffer • Binding Agent • Binding Agent Diluent (cAMP)
# (§3) • 1) Prepare FAM cAMP working solution: 20 μL of FAM-Cyclic-3′,5′-AMP stock was added to 1980 μL of PDE assay buffer. The mixture was added to all wells at 25 μL/well. • 2) Prepare compound solution: the test compounds were dissolved in DMSO to give a 10 mM stock solution. The compound stock solution was diluted with DMSO to a 100× Top Dose diluent. 5 μL of 100× Top Dose diluent was added to 45 μL of PDE assay buffer to prepare a compound Top Dose working solution. Then, the compound working solution was subjected to double dilution with PDE assay buffer containing 10% DMSO to prepare compound working solutions of various concentrations. The compound working solutions were added to compound wells at 5 μL/well. 5 μL of PDE assay buffer containing 10% DMSO was added to each control well. • 3) Prepare PDE enzyme solution: PDE3A and PDE4B2 enzyme stock solutions were diluted to 150 pg/μL and 50 pg/μL, respectively, with PDE assay buffer, and added to all compound wells and Vehicle control wells at 20 μL/well. 20 μL of PDE assay buffer was added to Blank control wells. • 4) React at room temperature for 1 h. • 5) Prepare Binding Agent: 80 μL of binding agent was added to 7920 μL of binding agent diluent, and the mixture was mixed well and added to all wells at 100 μL/well. • 6) React at room temperature for 1 h. • 7) Read FP on Envision. • 8) Calculation formula for original data:
# (§4) % inhibition rate=(FPV−FPS)/(FPV−FPB)×100% • FPS=sample FP • FPV=Vehicle control FP • FPB=Blank control FP.
# (§5) Nonlinear regression analysis of log[dose]-inhibition rate was performed by graphpad and IC50 was calculated.
# [2] = target: T2, PDE3A recombinant enzyme (Homo sapiens, UniProt Q14432); assay: In vitro assay of inhibitory activity against PDE 3A enzyme (FP, FAM-cAMP); type: biochemical; settings: in vitro screening assay
# T2 construct: purchased BPS 79736
# T2 sequence (Q14432 whole entry): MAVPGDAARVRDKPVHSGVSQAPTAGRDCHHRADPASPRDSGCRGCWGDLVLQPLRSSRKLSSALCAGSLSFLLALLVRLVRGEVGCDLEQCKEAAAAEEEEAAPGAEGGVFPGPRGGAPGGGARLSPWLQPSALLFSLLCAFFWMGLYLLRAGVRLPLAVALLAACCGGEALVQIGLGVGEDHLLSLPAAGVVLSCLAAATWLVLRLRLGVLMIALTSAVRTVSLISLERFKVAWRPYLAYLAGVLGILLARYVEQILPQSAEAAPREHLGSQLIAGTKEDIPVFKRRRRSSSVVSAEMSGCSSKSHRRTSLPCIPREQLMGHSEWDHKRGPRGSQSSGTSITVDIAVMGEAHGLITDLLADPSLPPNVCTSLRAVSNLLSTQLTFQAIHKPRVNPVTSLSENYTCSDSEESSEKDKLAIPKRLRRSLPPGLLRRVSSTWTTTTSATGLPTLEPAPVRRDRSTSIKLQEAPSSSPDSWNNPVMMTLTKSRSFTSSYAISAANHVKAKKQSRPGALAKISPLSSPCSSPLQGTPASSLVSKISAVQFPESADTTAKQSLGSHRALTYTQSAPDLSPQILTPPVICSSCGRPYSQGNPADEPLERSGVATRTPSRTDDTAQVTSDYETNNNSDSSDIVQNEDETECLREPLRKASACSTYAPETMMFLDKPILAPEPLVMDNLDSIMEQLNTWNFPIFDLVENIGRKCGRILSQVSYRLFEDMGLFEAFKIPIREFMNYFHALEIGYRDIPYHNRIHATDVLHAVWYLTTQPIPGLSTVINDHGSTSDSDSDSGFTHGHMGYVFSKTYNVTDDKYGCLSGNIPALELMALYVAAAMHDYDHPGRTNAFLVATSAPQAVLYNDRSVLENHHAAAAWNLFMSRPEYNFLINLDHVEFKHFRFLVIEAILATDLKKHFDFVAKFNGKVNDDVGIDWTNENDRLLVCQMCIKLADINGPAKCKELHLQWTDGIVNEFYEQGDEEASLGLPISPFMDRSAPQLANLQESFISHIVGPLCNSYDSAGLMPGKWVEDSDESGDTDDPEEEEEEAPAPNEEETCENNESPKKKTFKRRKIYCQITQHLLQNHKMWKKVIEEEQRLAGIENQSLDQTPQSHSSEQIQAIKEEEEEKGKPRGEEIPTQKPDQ
# Procedure: as §1, §2, §3, §4, §5
# [3] = reported in WO 2000058308 A1; cited from earlier work
# [4] = tested on: PDE4; settings: biological activity data, background; cited from earlier work
# [5] = reported in WO 2000058308 A1; cited from earlier work; remark: listed apart in the source
# T1 sequence (Q07343 1-564 isoform Q07343-2): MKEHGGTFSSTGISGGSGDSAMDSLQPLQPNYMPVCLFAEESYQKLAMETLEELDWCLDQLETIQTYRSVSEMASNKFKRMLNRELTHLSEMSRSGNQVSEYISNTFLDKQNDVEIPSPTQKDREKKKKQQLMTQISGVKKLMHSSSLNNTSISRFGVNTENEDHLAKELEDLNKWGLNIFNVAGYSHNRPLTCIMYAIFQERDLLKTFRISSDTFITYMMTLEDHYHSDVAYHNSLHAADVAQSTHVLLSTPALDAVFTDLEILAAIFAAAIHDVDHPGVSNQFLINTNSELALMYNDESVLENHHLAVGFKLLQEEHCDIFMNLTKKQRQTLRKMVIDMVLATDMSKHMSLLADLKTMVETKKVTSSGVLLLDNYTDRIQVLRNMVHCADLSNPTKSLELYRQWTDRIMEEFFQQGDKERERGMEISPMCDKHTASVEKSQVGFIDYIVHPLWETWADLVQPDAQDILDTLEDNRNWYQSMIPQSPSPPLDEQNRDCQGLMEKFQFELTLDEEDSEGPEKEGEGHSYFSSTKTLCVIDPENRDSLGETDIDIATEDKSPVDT
SMILES,pIC50 [1],pIC50 [2],solubility [3],PDE4 inhibitory activity [4],plasma clearance [5]
"COc1cc2c(cc1OC)-c1c/c(=N\c3c(C)cc(C4CC4)cc3C)n(CCNC(=O)c3c(O)nnn3C)c(=O)n1CC2 [Compound 6, (E)-N-(2-(2-((4-cyclopropyl-2,6-dimethylphenyl)imino)-9,10-dimethoxy-4-oxo-6,7-dihydro-2H-pyrimido[6,1-a]isoquinolin-3(4H)-yl)ethyl)-4-hydroxy-1-methyl-1H-1,2,3-triazole-5-carboxamide]",8.07,9.28,,,
"CCOc1cc2c(cc1OC)-c1c/c(=N\c3c(C)cc(C4CC4)cc3C)n(CCNC(=O)c3c(O)nnn3C)c(=O)n1CC2 [Compound 8, (E)-N-(2-(2-((4-cyclopropyl-2,6-dimethylphenyl)imino)-9-ethoxy-10-methoxy-4-oxo-6,7-dihydro-2H-pyrimido[6,1-a]isoquinolin-3(4H)-yl)ethyl)-4-hydroxy-1-methyl-1H-1,2,3-triazole-5-carboxamide]",8.85,9.23,,,
"CCOc1cc2c(cc1OC)-c1c/c(=N\c3c(C)cc(OC)cc3C)n(CCNC(=O)c3c(O)nnn3C)c(=O)n1CC2 [Compound 9, (E)-N-(2-(9-ethoxy-10-methoxy-2-((4-methoxy-2,6-dimethylphenyl)imino)-4-oxo-6,7-dihydro-2H-pyrimido[6,1-a]isoquinolin-3(4H)-yl)ethyl)-4-hydroxy-1-methyl-1H-1,2,3-triazole-5-carboxamide]",8.82,9.30,,,
COc1cc2c(cc1OC)-c1c/c(=N\c3c(C)cc(C)cc3C)n(CCNC(N)=O)c(=O)n1CC2 [RPL554],,,poor,unsatisfactory,high
